One data set deals with CypD (Homo sapiens, UniProt P30405). Put plainly: Chymotrypsin coupled prolyl-isomerase assay. The note with it: read-out: IC50 CypD; prolyl-isomerase inhibition, 5 nM cyclophilin, Suc-AAPF-AMC; mean±s.e.m. of 3 technical replicates (B52, B53, C3A wild-type: mean±s.d. of 4 independent replicates). As for the experimental part:
Five microliters of compound pre-dissolved in 5% DMSO/assay buffer was then added to appropriate wells and incubated at 2–3 °C for 5 min. Five microliters of 0.5 mM α-chymotrypsin from bovine pancreas (Type II, lyophilized powder, Millipore-Sigma) in 20% 1 mM HCl/Assay Buffer was then added to each well and incubated at 2–3 °C for 5 min. The plate was then quickly transferred to a FLIPR Tetra High-Throughput Cellular Screening System (Molecular Devices). Using the internal liquid handling system of the FLIPR, 1 µL 0.5 mM Suc-AAPF-AMC (Chymotrypsin Substrate II, Millipore-Sigma) dissolved in 0.55 M LiCl/2,2,2-trifluoroethanol was added to each well, which was then mixed for 5 s, followed by immediate fluorescence measurements every 1 s for 330 s using a 360–380 nm excitation LED module and a 400–460 nm emission filter. […] Raw fluorescence data was analyzed by non-linear regression analysis with Prism v.9 by fitting one-phase association curves to each well. […] Rate constants calculated for each well (s^−1) were then normalized to substrate only (no prolyl-isomerase) and enzyme + substrate only controls.

The subject of another data set is HeLa cells. Put plainly: Fluorescence microscopy of Cy5-conjugated compounds. It counts as cell-based, human. As for the experimental part:
Cells were seeded into 96-well, black, clear-bottom, TC-treated plates, in DMEM supplemented with 10% FBS 24 h prior at a density where wells were ~80% confluent at the time of the experiment. Medium was removed and cells were then stained with 50 µL mixture containing Cy5-labeled compound (6 µM) in Kreb’s ringer solution HEPES buffered pH 7.2 (KRB), for 1 h at 37 °C. Then, 50 µL Hoechst 33342 (8 µM) and Mitotracker Green FM (0.1 µM) in KRB was added directly to wells containing cells and incubated for 15 min at 37 °C. Medium was removed and cells were washed twice with 100 µL KRB. Cells were then kept adherent to the wells in 100 µL KRB for imaging. Fluorescence microscopy was conducted on an Opera Phenix Plus High-Content Screening System, using Alexa 488, Alexa 647, and Hoescht 33342 channels. Images were analyzed using Harmony v.4.9.

In another data set the target is T1, PPIL1 (Homo sapiens, UniProt Q9Y3C6).
T1 construct: PPIL1 (UniProtKB Entry Q9Y3C6: residues 1–166); made in house; host or cells: E. coli BL21(DE3)
T1 sequence (Q9Y3C6 1-166): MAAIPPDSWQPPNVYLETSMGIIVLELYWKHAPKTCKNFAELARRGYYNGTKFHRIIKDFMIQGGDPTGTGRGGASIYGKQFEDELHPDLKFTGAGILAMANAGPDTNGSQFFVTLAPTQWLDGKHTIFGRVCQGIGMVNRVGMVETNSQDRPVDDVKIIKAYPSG
Put plainly: Chymotrypsin coupled prolyl-isomerase assay. It counts as biochemical. The settings on record: wild-type PPIL1; read-out: Wild-Type Cyclophilin Prolyl Isomerase Inhibition IC50 Values, PPIL1.

Another data set addresses T2, PPWD1 (Homo sapiens, UniProt Q96BP3).
T2 construct: PPWD1 (UniProtKB Entry Q96BP3: residues 473–646); host or cells: E. coli BL21(DE3)
T2 sequence (Q96BP3 473-646): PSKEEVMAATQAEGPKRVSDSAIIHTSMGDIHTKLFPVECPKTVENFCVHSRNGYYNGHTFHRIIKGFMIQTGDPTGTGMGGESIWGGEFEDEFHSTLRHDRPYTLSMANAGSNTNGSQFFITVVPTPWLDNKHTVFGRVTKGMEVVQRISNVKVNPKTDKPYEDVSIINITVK
Briefly: Chymotrypsin coupled prolyl-isomerase assay. The class given is biochemical.

In a further data set the target is T3, NKTR (Homo sapiens, UniProt P30414).
T3 construct: NKTR (UniProtKB Entry P30414: residues 7–179); host or cells: E. coli BL21(DE3)
T3 sequence (P30414 7-179): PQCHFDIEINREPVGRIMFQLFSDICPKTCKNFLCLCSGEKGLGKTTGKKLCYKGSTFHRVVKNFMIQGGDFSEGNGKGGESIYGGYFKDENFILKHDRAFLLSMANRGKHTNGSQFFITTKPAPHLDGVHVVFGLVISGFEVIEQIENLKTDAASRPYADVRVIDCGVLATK
Put plainly: Chymotrypsin coupled prolyl-isomerase assay. It counts as biochemical. The note with it: wild-type NKTR; read-out: Wild-Type Cyclophilin Prolyl Isomerase Inhibition IC50 Values, NKTR.

Another data set deals with Cyp40 (Homo sapiens, UniProt Q08752). Briefly: Chymotrypsin coupled prolyl-isomerase assay. The note with it: read-out: Wild-Type Cyclophilin Prolyl Isomerase Inhibition IC50 Values, Cyp40; wild-type Cyp40. How it is done:
(§1) Adapting a previously described protocol, with an Agilent Bravo Velocity 11 with a 384ST head, 90 µL assay buffer (25 mM HEPES pH 7.3, 100 mM NaCl, 0.01% Triton X-100) containing 5.28 nM cyclophilin was added into a flat, clear-bottom, black 384-well plate pre-chilled in a Corning CoolBox at 2–3 °C. Five microliters of compound pre-dissolved in 5% DMSO/assay buffer was then added to appropriate wells and incubated at 2–3 °C for 5 min. Five microliters of 0.5 mM α-chymotrypsin from bovine pancreas (Type II, lyophilized powder, Millipore-Sigma) in 20% 1 mM HCl/Assay Buffer was then added to each well and incubated at 2–3 °C for 5 min. The plate was then quickly transferred to a FLIPR Tetra High-Throughput Cellular Screening System (Molecular Devices). Using the internal liquid handling system of the FLIPR, 1 µL 0.5 mM Suc-AAPF-AMC (Chymotrypsin Substrate II, Millipore-Sigma) dissolved in 0.55 M LiCl/2,2,2-trifluoroethanol was added to each well, which was then mixed for 5 s, followed by immediate fluorescence measurements every 1 s for 330 s using a 360–380 nm excitation LED module and a 400–460 nm emission filter. Final concentrations of the plate include 5 nM cyclophilin, 0.25% DMSO, 25 µM α-chymotrypsin, 5 µM Suc-AAPF-AMC. Raw fluorescence data was analyzed by non-linear regression analysis with Prism v.9 by fitting one-phase association curves to each well. […] Rate constants calculated for each well (s^−1) were then normalized to substrate only (no prolyl-isomerase) and enzyme + substrate only controls. IC50 values were calculated as the value at which 50% inhibition was achieved on the non-linear regression fitted curve of each compound.

For another data set, the target named is T4, CypG (Homo sapiens, UniProt Q13427).
T4 construct: PPIG (UniProtKB Entry Q13427: residues 1–179); His6 with thrombin site (pET28a LIC leader) (N); host or cells: E. coli BL21(DE3)
T4 sequence (Q13427 1-179): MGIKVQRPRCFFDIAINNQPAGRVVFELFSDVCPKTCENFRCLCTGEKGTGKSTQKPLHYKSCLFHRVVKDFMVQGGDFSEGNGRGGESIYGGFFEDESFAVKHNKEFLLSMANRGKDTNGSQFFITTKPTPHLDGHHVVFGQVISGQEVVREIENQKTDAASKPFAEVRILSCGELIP
Briefly: Chymotrypsin coupled prolyl-isomerase assay. The class given is biochemical. The settings on record: wild-type CypG; read-out: Wild-Type Cyclophilin Prolyl Isomerase Inhibition IC50 Values, CypG. As for the experimental part:
as §1

Another data set has as its target T5, CypC (Homo sapiens, UniProt P45877).
T5 construct: PPIC (UniProtKB Entry P45877: residues 24–212); host or cells: E. coli BL21(DE3)
Briefly: Chymotrypsin coupled prolyl-isomerase assay. The class given is biochemical. The note with it: wild-type CypC; read-out: Wild-Type Cyclophilin Prolyl Isomerase Inhibition IC50 Values, CypC. As for the experimental part:
as §1

The target in a further data set is T6, CypE (Homo sapiens, UniProt Q9UNP9).
T6 construct: PPIE (UniProtKB Entry Q9UNP9: residues 131–301); host or cells: E. coli BL21(DE3)
Briefly: Chymotrypsin coupled prolyl-isomerase assay. The class given is biochemical. The note with it: wild-type CypE; read-out: Wild-Type Cyclophilin Prolyl Isomerase Inhibition IC50 Values, CypE. As for the experimental part: as §1

Another data set addresses T7, CypA (Homo sapiens, UniProt P62937).
T7 construct: PPIA (UniProtKB Entry P62937: residues 1–165); made in house; host or cells: E. coli BL21(DE3)
Put plainly: Chymotrypsin coupled prolyl-isomerase assay. The class given is biochemical. The settings on record: wild-type CypA; read-out: Wild-Type Cyclophilin Prolyl Isomerase Inhibition IC50 Values, CypA. As for the experimental part: as §1

In another data set the target is T8, CypH (Homo sapiens, UniProt O43447).
T8 construct: PPIH (UniProtKB Entry O43447: residues 1–177); His6 with TEV site (2BT vector leader) (N); made in house; host or cells: E. coli BL21(DE3)
Put plainly: Chymotrypsin coupled prolyl-isomerase assay. The class given is biochemical. As for the experimental part: as §1

The target of a further data set is T9, CypB (Homo sapiens, UniProt P23284).
T9 construct: PPIB (UniProtKB Entry P23284: residues 34–216); His6 with TEV site (2BT vector leader) (N); made in house; host or cells: E. coli BL21(DE3)
Put plainly: biochemical. The settings on record: wild-type CypB; read-out: Wild-Type Cyclophilin Prolyl Isomerase Inhibition IC50 Values, CypB. How it is done:
as §1

Structures are written as SMILES. Like-named read-outs stand apart in the source and are kept apart here.

T8 sequence (O43447 whole entry, the tested form may be a part): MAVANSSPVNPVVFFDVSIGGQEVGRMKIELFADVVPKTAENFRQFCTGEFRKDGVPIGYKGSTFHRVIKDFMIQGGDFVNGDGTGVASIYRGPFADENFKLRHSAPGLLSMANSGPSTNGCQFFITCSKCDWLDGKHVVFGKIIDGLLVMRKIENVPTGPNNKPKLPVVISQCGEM
Chain of CypD (P30405 45-207): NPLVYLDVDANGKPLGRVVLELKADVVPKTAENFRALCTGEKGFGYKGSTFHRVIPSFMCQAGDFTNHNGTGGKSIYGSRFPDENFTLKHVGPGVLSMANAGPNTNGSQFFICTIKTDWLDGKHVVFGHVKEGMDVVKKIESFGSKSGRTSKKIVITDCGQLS
T7 sequence (P62937 whole entry, the tested form may be a part): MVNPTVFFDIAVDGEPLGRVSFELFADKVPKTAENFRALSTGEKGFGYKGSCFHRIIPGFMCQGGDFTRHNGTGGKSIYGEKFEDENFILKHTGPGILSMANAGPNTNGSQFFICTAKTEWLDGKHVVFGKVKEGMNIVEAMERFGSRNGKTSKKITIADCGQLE
Chain of Cyp40 (Q08752 1-183): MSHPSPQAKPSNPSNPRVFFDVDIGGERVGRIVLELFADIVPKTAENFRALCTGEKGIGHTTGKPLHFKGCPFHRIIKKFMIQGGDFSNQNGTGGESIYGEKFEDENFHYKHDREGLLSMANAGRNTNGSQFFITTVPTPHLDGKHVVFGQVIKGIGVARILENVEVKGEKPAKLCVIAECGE
T5 sequence (P45877 24-212): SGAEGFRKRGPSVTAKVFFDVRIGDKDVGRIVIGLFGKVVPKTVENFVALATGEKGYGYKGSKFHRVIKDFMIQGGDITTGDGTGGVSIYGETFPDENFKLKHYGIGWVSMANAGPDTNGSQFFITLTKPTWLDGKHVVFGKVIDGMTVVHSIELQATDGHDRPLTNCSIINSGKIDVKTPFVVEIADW
T6 sequence (Q9UNP9 131-301): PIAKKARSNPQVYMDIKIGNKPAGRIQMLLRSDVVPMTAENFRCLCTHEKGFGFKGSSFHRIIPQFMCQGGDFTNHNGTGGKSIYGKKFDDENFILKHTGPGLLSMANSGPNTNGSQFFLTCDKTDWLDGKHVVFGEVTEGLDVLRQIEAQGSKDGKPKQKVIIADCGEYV
T9 sequence (P23284 34-216): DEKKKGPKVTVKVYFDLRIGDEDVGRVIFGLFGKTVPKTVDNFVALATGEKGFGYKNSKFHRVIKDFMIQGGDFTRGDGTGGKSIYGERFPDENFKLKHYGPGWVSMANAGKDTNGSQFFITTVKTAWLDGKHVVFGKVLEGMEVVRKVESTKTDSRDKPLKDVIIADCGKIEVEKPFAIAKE
Protocol for NKTR: (§2) Adapting a previously described protocol[51], with an Agilent Bravo Velocity 11 with a 384ST head, 90 µL assay buffer (25 mM HEPES pH 7.3, 100 mM NaCl, 0.01% Triton X-100) containing 5.28 nM cyclophilin was added into a flat, clear-bottom, black 384-well plate pre-chilled in a Corning CoolBox at 2–3 °C. Five microliters of compound pre-dissolved in 5% DMSO/assay buffer was then added to appropriate wells and incubated at 2–3 °C for 5 min. Five microliters of 0.5 mM α-chymotrypsin from bovine pancreas (Type II, lyophilized powder, Millipore-Sigma) in 20% 1 mM HCl/Assay Buffer was then added to each well and incubated at 2–3 °C for 5 min. […] Using the internal liquid handling system of the FLIPR, 1 µL 0.5 mM Suc-AAPF-AMC (Chymotrypsin Substrate II, Millipore-Sigma) dissolved in 0.55 M LiCl/2,2,2-trifluoroethanol was added to each well, which was then mixed for 5 s, followed by immediate fluorescence measurements every 1 s for 330 s using a 360–380 nm excitation LED module and a 400–460 nm emission filter. Final concentrations of the plate include 5 nM cyclophilin, 0.25% DMSO, 25 µM α-chymotrypsin, 5 µM Suc-AAPF-AMC. Raw fluorescence data was analyzed by non-linear regression analysis with Prism v.9 by fitting one-phase association curves to each well. Analyses were halted after the calculated maximum fluorescent value owing to observed fluorescent bleaching during the sustained fluorescent plateau. Rate constants calculated for each well (s^−1) were then normalized to substrate only (no prolyl-isomerase) and enzyme + substrate only controls. IC50 values were calculated as the value at which 50% inhibition was achieved on the non-linear regression fitted curve of each compound.
Protocol for PPIL1: as §2

A word on the IC50: it is the concentration at which inhibition is half-maximal. Turning to `CC(=O)NCCNC(=O)CCCCCN1\C(=C/C=C/C=C/C2=[N+](C)c3ccccc3C2(C)C)C(C)(C)c2ccccc21` [Cy5-enAc, reference compound], at CypD, the IC50 was > 2000 nM. Further, the “plasma membrane permeability / mitochondrial localization (in words)” value with HeLa cells is listed as “good mitochondrial localization”.
Consider `NCCOCCNC(=O)[C@@H]1CCNC(=O)/C=C/C(=O)N2CCC[C@](Cc3ccccc3)(C2)C(=O)N[C@@H](Cc2ccc(-c3ccc(CC(=O)O)cc3)cc2)C(=O)NCc2ccccc2CC(=O)N1` [Compound B22], for which the IC50 on PPIL1 was 600 nM; on PPWD1 (prolyl-isomerase inhibition, 5 nM cyclophilin, read-out: IC50 PPWD1), ~50 µM; at PPWD1 (wild-type PPWD1, read-out: Wild-Type Cyclophilin Prolyl Isomerase Inhibition IC50 Values, PPWD1) it was 50 µM; at NKTR it was > 100 µM; at CypD, 40 nM; at Cyp40, 1000 nM. Also, the IC50 on CypG is 10 µM; at CypC, 14 µM; on CypE, 130 nM; at CypA it was 700 nM; at CypH (prolyl-isomerase inhibition, 5 nM cyclophilin, read-out: IC50 CypH), ~100 µM; at CypH (wild-type CypH, read-out: Wild-Type Cyclophilin Prolyl Isomerase Inhibition IC50 Values, CypH) it was 100 µM. The IC50 on CypB came to 230 nM.

The values are drawn from publication PMC9596378, “Discovery and molecular basis of subtype-selective cyclophilin inhibitors” (Nature Chemical Biology, 2022).
